Measured values: patent publication US20240343747A1, “Heteroaryl compounds as inhibitors of TYK2, composition and application thereof” (Accro Bioscience (HK) Limited, priority 2021, published 2024)

Key:
JAK1 JH1 = JAK1 JH1 (Homo sapiens (Human), UniProt P23458); assay: Competitive binding assay (kinase-tagged phage, qPCR), JAK1 JH1
Experimental: For most assays, kinase-tagged T7 phage strains were prepared in an E. coli host derived from the BL21 strain. E. coli were grown to log-phase and infected with T7 phage and incubated with shaking at 32° C. until lysis. The lysates were centrifuged and filtered to remove cell debris. The remaining kinases were produced in HEK-293 cells and subsequently tagged with DNA for qPCR detection. Streptavidin coated magnetic beads were treated with biotinylated small molecule ligands for 30 minutes at room temperature to generate affinity resins for kinase assays. The liganded beads were blocked with excess biotin and washed with blocking buffer (SeaBlock (Pierce), 1% BSA, 0.05% Tween 20, 1 mM DTT) to remove unbound ligand and to reduce non-specific binding. […] Test compounds were prepared as 111X stocks in 100% DMSO. Dissociation constants (Kds) were determined using an 11-point 3-fold compound dilution series with three DMSO control points. All compounds for Kd measurements are distributed by acoustic transfer (non-contact dispensing) in 100% DMSO. The compounds were then diluted directly into the assays such that the final concentration of DMSO was 0.9%. All reactions performed in polypropylene 384-well plate. Each was a final volume of 0.02 ml. The assay plates were incubated at room temperature with shaking for 1 hour and the affinity beads were washed with wash buffer (1×PBS, 0.05% Tween 20). The beads were then re-suspended in elution buffer (1×PBS, 0.05% Tween 20, 0.5 μM nonbiotinylated affinity ligand) and incubated at room temperature with shaking for 30 minutes. The kinase concentration in the eluates was measured by qPCR.
An 11-point 3-fold serial dilution of each test compound was prepared in 100% DMSO at 100× final test concentration and subsequently diluted to 1× in the assay (final DMSO concentration=1%). Most Kds were determined using a compound top concentration=30,000 nM. If the initial Kd determined was <0.5 nM (the lowest concentration tested), the measurement was repeated with a serial dilution starting at a lower top concentration.
Binding constants (Kds) were calculated with a standard dose-response curve using the Hill equation: […]
The Hill Slope was set to −1.
Curves were fitted using a non-linear least square fit with the Levenberg-Marquardt algorithm.

[1] = test system: production of CXCL-10 stimulated by IFNα in PBMC; assay: ELISA: production of CXCL-10 stimulated by IFNα in PBMC; assay type: cell-based; settings: CXCL-10 production stimulated by IFNα in PBMC; for IC50: ELISA
Experimental: • 1. Soak plate: Add 300 μL 1×washing solution and let stand for 30 seconds. After discarding the washing solution, dry the microporous plate on absorbent paper. • 2. Add standard: Add 100 μL of 2-fold standard to standard well. Add 100 μL standard dilution (serum/plasma sample) or culture medium (cell culture supernatant sample) to blank well. • 3. Add sample: Serum/plasma: Add 50 μL 1×assay buffer and 50 μL sample to sample well. Cell culture supernatant: Add 100 μL cell culture supernatant to sample well. • 4. Add detection antibody: Add 50 μL diluted detection antibody (1:100 diluted) to each well. Make sure steps 4, 5 and 6 are added continuously without interruption. The sampling process was completed within 15 minutes. • 5. Incubation: Use sealing plate film to seal the plate. shake at 300 rpm and incubate for 2 hours at room temperature. • 6. Washing: Discard the liquid, add 300 μL of washing solution and wash the plate 6 times. pat dry on blotting paper after each wash. To obtain the desired experimental performance, the residual liquid must be completely removed. • 7. Enzyme addition: Add 100 μL diluted horseradish peroxidase labeled streptavidin to each well (1:100 diluted). • 8. Incubation: Seal the plate with a new sealing film. shake at 300 rpm and incubate at room temperature for 45 minutes. • 9. Washing. Repeat step […]. • 10. Add substrate for color development: Add 100 μL of color development substrate TMB to each well, keep away from light, and incubate at room temperature for 5-30 minutes. • 11. Add Stop Solution: Add 100 μL stop solution to each well. The color changed from blue to yellow. If the color appears green or the color changes unevenly, gently tap the frame of the plate to mix well. • 12. Assay readout: Within 30 minutes, perform dual wavelength detection using a microplate reader to measure the OD at the absorption maximum at 450 nm and reference wavelengths at 570 nm or 630 nm. The calibrated OD value is the measured value at 450 nm minus the measured value at 570 nm or 630 nm.

[2] = Pharmacokinetic evaluation in beagle dog; assay type: in vivo; settings: for F / AUC / Vd / clearance / half-life / Cmax / Tmax: beagle dog; for plasma exposure in beagle dog (in words): conclusion from Table 11; for AUC / Vd / clearance / half-life / Cmax / Tmax: plasma
Experimental: The beagle dog pharmacokinetic characteristics of compounds were tested by standard protocols. The candidate compounds were made into clear solution for single intravenous injection (i.v.) and suspension for oral administration (p.o.). Intravenous and oral vehicle is 5% DMSO+10% Solutol+85% Saline. The experiment used 9 dog and 3 dog for intravenous at a dose of 1 mg/kg. Plasma samples were collected at 0 h (before dosing) and 0.083 h, 0.25 h, 0.5 h, 1 h, 2 h, 4 h, 8 h, 24 h after dosing. 3 dog were orally administrated at a dose of 5 mg/kg and 3 dog were orally administrated at a dose of 15 mg/kg. Plasma samples were collected at 0 h (before dosing) and 0.25 h, 0.5 h, 1 h, 2 h, 4 h, 6 h, 8 h, 24 h after dosing.
Blood samples were placed in tubes containing K2-EDTA and stored on ice until centrifuged. The blood samples were centrifuged at 6800 g for 6 minutes at 2-8° C. within 1 h after collected, and stored frozen at approximately −80° C.
The analytical results were confirmed using quality control samples for intra-assay variation. The accuracy of >66.7% of the quality control samples and 50% of all QC samples at each concentration level were between 80-120% of the known value(s).
Standard set of parameters including area under the curve (AUC(0-t) and AUC(0-∞)), elimination half-live (T1/2), maximum plasma concentration (Cmax), time to reach maximum plasma concentration (Tmax) were calculated using noncompartmental analysis modules in FDA certified pharmacokinetic program Phoenix WinNonlin 7.0 (Pharsight, USA) by the Study Director.

JAK1 JH1, sequence (P23458 875-1153): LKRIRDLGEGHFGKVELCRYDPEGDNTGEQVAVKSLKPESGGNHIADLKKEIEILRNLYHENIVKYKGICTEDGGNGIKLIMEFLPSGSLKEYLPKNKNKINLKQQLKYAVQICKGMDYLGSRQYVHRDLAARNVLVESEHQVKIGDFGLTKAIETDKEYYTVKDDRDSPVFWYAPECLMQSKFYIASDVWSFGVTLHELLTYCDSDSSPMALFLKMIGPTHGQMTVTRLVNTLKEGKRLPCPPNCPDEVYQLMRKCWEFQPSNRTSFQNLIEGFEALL

SMILES | Kd (JAK1 JH1) [nM] | activity compared with BMS986165 [1] | IC50 [1] [nM] | F ([2]; p.o. 5 mg/kg) [%] | F ([2]; p.o. 15 mg/kg) [%] | plasma exposure in beagle dog (in words) [2] | AUC ([2]; iv, i.v. 1 mg/kg) [ng·h/mL] | Vd ([2]; iv, i.v. 1 mg/kg) [L/kg] | clearance ([2]; iv, i.v. 1 mg/kg) [mL/min/kg] | half-life ([2]; iv, i.v. 1 mg/kg) [h] | AUC ([2]; po, p.o. 5 mg/kg) [ng·h/mL] | Cmax ([2]; po, p.o. 5 mg/kg) [ng/mL] | Tmax ([2]; po, p.o. 5 mg/kg) [h] | AUC ([2]; po, p.o. 15 mg/kg) [ng·h/mL] | Cmax ([2]; po, p.o. 15 mg/kg) [ng/mL] | Tmax ([2]; po, p.o. 15 mg/kg) [h]
CCC(=O)c1cnc(NC(=O)C2CC2)cc1Nc1cccc(-c2cc(P(=O)(C3CC3)C3CC3)n(C)n2)c1OC [Compound B37, N-(4-((3-(5-(dicyclopropylphosphoryl)-1-methyl-1H-pyrazol-3-yl)-2-methoxyphenyl)amino)-5-propionylpyridin-2-yl)cyclopropanecarboxamide] | > 30000 | more active than BMS986165 | 28.2 | 46 | 21 | excellent plasma exposure | 9240 | 0.33 | 1.9 | 2.2 | 21300 | 3980 | 0.83 | 28600 | 4870 | 0.67
CCC(=O)c1cnc(NC(=O)C2CC2)cc1Nc1cccc(-c2cc(P(C)(C)=O)n(C)n2)c1OC [Compound B2, N-(4-((3-(5-(dimethylphosphoryl)-1-methyl-1H-pyrazol-3-yl)-2-methoxyphenyl)amino)-5-propionylpyridin-2-yl)cyclopropanecarboxamide] | > 30000 | – | – | – | – | – | – | – | – | – | – | – | – | – | – | –
[2H]C([2H])([2H])NC(=O)c1nnc(NC(=O)C2CC2)cc1Nc1cccc(-c2cc(P(=O)(C3CC3)C3CC3)n(C)n2)c1OC [Compound B41, 6-(cyclopropanecarboxamido)-4-((3-(5-(dicyclopropylphosphoryl)-1-methyl-1H-pyrazol-3-yl)-2-methoxyphenyl)amino)-N-(methyl-d3)pyridazine-3-carboxamide] | – | – | 39.5 | 79 | 120 | excellent plasma exposure | 4900 | 0.56 | 4 | 2.1 | 19400 | 3100 | 1 | 88000 | 9870 | 1.7
